In general, melting point refers to the temperature, or range, at which the solid turns liquid.

As to `COCc1nnc(N2N=C(c3ccc([N+](=O)[O-])c(Cl)c3)c3cc4c(cc3C[C@H]2C)OCO4)s1`, the melting point is 208 to 210 °C.
`CCCCn1cnnc1S` gave a melting point of 67 to 69 °C.
As to `Cc1cc(C)cc(COC2CCC(N)(c3ccccc3)C(OCc3cc(C)cc(C)c3)C2)c1` (stereo not drawn), the melting point lay in the range of 103 to 105 °C.
The compound `CN(C)CC1CCCCN1CC(=O)N1c2ccccc2C(=O)Nc2cccnc21` (stereo not drawn) registered a melting point of 189 to 190 °C.
As for `COC(=O)N(O)Cc1c(C)n(C(=O)c2ccc(Cl)cc2)c2ccc(OC)cc12`, the melting point lay in the range of 113 to 114 °C.
With `CCN(CC)c1ccc(Nc2ccnc(Nc3cc(OC)c(OC)c(OC)c3)n2)cc1`, the melting point was 87 °C.
For `CC(C)=NOCCCn1cnc2c(N)nc3cccnc3c21`, the melting point fell in the range of 120 to 121 °C.
The compound `COC(=O)c1c2c(c3cc(OC)c(OC)c(OC)c3c1-c1cc(OC)c(OC)c(OC)c1)OCOC2=O` yielded a melting point of 165 to 167 °C.
`CCCCN(C(=O)c1cc(C(C)(C)C)c(O)c(C(C)(C)C)c1)C1CC(C)(C)N(OC(C)=O)C(C)(C)C1` came in with a melting point of 161 to 164 °C.
`NC(=O)C1CCN(C(=O)CNC(=O)CN2CCCC2=O)CC1` showed a melting point of 217 to 219 °C.
As to `O=C(NC(=O)c1c(F)cccc1F)Nc1ccc(C(F)(F)F)cc1F`, the melting point came out at 197 °C.
In turn, `CC(=O)C(=Cc1ccccc1)C(C)=O` had a melting point of 165 to 167 °C.
Regarding `Nc1cccc(C(=O)Nc2nccn(-c3ccccc3)c2=O)c1`, the melting point was over 250 °C.
In the case of `CC(C)n1c(Cl)nc2ccccc21` it was 58 to 60 °C; in that of `Nc1ncc(C#Cc2ccc(Cl)cc2)c(N[C@H]2CC[C@H](O)CC2)n1`, 215 to 218 °C; in that of `CCOC(=O)c1nc2ccc(Cl)nn2c1C`, 170 to 171 °C.
Regarding `CN=C1CN(c2ccccc2)C(=O)N1C`, the melting point fell in the range of 160 to 162 °C.
Regarding `CCOc1csc2c(=O)c(SC)cn(C)c12`, the melting point was 214 to 217 °C.
`O=C1CCC(c2ccccc2)(c2ccccc2)[C@@H]2CN(C(=O)Cc3ccccc3N3CCCC3)C[C@H]12` (racemic) had a melting point of 178 °C.
Next, `COc1ccc(-c2ccc3cc(C(=O)O)ccc3c2)cc1`: 267 to 269 °C; `COc1ccc(C(=O)c2ccccc2)cc1OCCCN1CCC(c2noc3cc(F)ccc23)CC1`: 140 to 141 °C.
As to `CCCCN1CC(=O)NC1=O`, the melting point was in the range of 90 to 92 °C.
In the case of `CC1CSC2=C(O1)c1cc(N3CCCCC3)ccc1C(=O)C2=O` (stereo not drawn) it was 225 to 226 °C.
With `CCCCNc1ncc(C(=O)c2ccc(N)c([N+](=O)[O-])c2)s1`, the melting point was 198 to 203 °C.
Take `NC(=O)CCCCC1CCCCC1`: the melting point is 121 to 122 °C.
In the case of `COC1=C(C(=O)c2ccc(C)cc2)C(c2ccc(C(C)C)cc2)N(c2ncc(S(=O)(=O)c3ccc([N+](=O)[O-])cc3)s2)C1=O` (stereo not drawn) it was 237 °C; in that of `CC(=O)OCCC1(C)CCc2c(C)c(OCc3ccccc3)c(C)c(C)c2O1` (stereo not drawn), 58 to 62 °C; in that of `COC12CC(C)(C)C(O)C(C=C1C)O2` (stereo not drawn), 82.5 to 83.5 °C.
`CCCCn1c(C)cc(=O)c(C(=O)Nc2ccccc2)c1-c1ccccc1` displayed a melting point of 190 to 193 °C.
On to `COc1ccc2ncnc(N3CCCc4ccccc43)c2c1`, for which the melting point stood at 98 °C.
`COc1ccc(N2CCNC2=O)cc1OC`: the melting point amounted to 168 °C.
As for `CC(=O)Nc1cc(C(C)(C)C)c(SC2=C(O)CC(CCc3ccc(O)cc3)(C3CCCCC3)OC2=O)cc1C` (stereo not drawn), the melting point was over 154 °C.
The compound `CC1=C(C(=O)OC(C)(C)C)C(c2ccc(Br)cc2)C(C(=O)OC(C)(C)C)=C(C)N1` showed a melting point of 206 to 207 °C.
Next, `CN1C(=O)N(CBr)C(=O)C1(C)C`: 86 to 88 °C; `CCCCN(c1nc(N(CC)CC)nc(N(CCCC)C2CC(C)(C)N(OC)C(C)(C)C2)n1)C1CC(C)(C)N(OC)C(C)(C)C1`: 109 to 112 °C.
Next, `COC(=O)CCCc1cc2cc(Cl)ccc2n1S(=O)(=O)c1ccc2c(c1)CCC(=O)N2`: 198 to 205 °C; `CC(O)c1cc(F)ccc1Oc1nc2ccc(-n3cc(-c4ccccc4)nn3)cc2cc1Cc1ccccc1` (stereo not drawn): 103 °C.
For `NC(=O)N1CC(Oc2ccccn2)C1`, the melting point lay within 133 to 137 °C.
`O=C1c2cc3nnn(Cc4cccnc4)c(=O)c3cc2OC2CCCN12` (stereo not drawn) showed a melting point of 203 to 205 °C.
In turn, `Oc1ccc(Cl)cc1-n1c(=S)[nH]c2cc(C(F)(F)F)ccc21` yielded a melting point of 248 to 250 °C.
Next, `O=c1[nH]c2ccccc2c(=O)n1CCCCCn1ccnc1`: 160 to 162 °C.
The compound `CC(C)c1cc(C(C)C)c2ncn(/C=C/C(=O)O)c(=O)c2c1` registered a melting point of 181 to 182 °C.
Compound `Cn1cc(-c2cccc(C3NCCc4c3sc3c4CC(C)(C)C3)c2CO)cc(Nc2cnn3c2COCC3)c1=O` (stereo not drawn) returned a melting point of 167 to 168 °C.
In the case of `COc1ccc(N2C(=O)C3=C(CCCC3)C2CC(=O)N2CCCCC2)cc1` (stereo not drawn), the melting point lay within 101 to 102 °C.
Compound `Cc1c(O)ccc2c(=O)c(-c3ccc(Cl)cc3)coc12` showed a melting point of 275 °C.
`CCC(COC)NC(=O)C(Cc1ccc(OCc2ccccc2)cc1)NC(=O)C(CC(C)C)N(C)Cc1ccc(C(C)(C)C)cc1` (stereo not drawn): the melting point fell in the range of 118 to 120 °C.
Next, `CCOC(=O)c1c(C2CC2)nn(CC)c1Cc1ccc(-c2ccccc2-c2nnn[nH]2)cc1`: 73 to 77 °C; `COc1ccc(C(=O)Cc2c(Cl)cncc2Cl)c2c1OC(c1ccccc1)(c1ccccc1)O2`: 156 to 157 °C; `CC(C)(C)OC(=O)Nc1ccc(-c2ccc(OCc3ccccc3)nc2)cc1N`: 176 to 177 °C.
Compound `CC(C)OC(=O)C1=C2SCC(=CC(=O)N(C)C)N2CC1C` (stereo not drawn) registered a melting point of 126 to 128 °C.
For `N#Cc1nc(-c2c(Cl)cc(C(F)(F)F)cc2Cl)[nH]c1C#N`, the melting point was in the range of 194 to 195 °C.
Take `CCc1cc(C(=O)CBr)ccc1O`: the melting point was over 260 °C.
Next, `NC(CCOc1ccc(C(=NO)C(=O)NC2CN(C(C(=O)O)c3ccc(OCc4ccccc4)cc3)C2=O)cc1)C(=O)O` (stereo not drawn): 164 to 168 °C; `O=C(O)c1cc(Br)c2ccccn2c1=O`: over 250 °C; `CC(C)(C)C(=O)OC1=CC(=O)C(=O)c2ccccc21`: 125 to 126 °C.
In the case of `O=C1c2ccccc2-c2c1c1ccccc1c(=O)n2CCCCCCCCCCCCn1c2c(c3ccccc3c1=O)C(=O)c1ccccc1-2` it was 226 to 228 °C; in that of `COC(=O)c1c(C(=O)OC)c(-c2ccc(OC)c(OC)c2)c2cc3c(cc2c1O)OCO3`, 158 to 159 °C.
Consider `O=C1OC2CCSC2Cn2cccc21` (stereo not drawn), for which the melting point was 167 to 168 °C.
`Cc1ccc2c(c1)C(CCCCOS(C)(=O)=O)C(=O)N2` (stereo not drawn) came in with a melting point of 89 to 90 °C.
In turn, `CN1CC(C(Oc2ccccc2N)c2ccccc2)OCC1=O` (stereo not drawn) registered a melting point of 167 to 170 °C.
In turn, `COC(=O)c1cc(F)c([N+](=O)[O-])cc1NC(C)=O` gave a melting point of 124 to 126 °C.
`CN1CC[C@H]2Cc3[nH][nH]c(=O)c3C[C@@H]2C1` (relative stereo) gave a melting point of 245 to 247 °C.
`CCCCN(CCCC)CCCNc1ccccc1[N+](=O)[O-]` showed a melting point of 79 °C.
For `c1ccc(C2CNc3ccccc3C2)cc1` (stereo not drawn), the melting point is 84 to 86 °C.
In the case of `CCOC(=O)c1ccccc1NCc1c(-c2ccccc2)nn(C)c1Cl` it was 123 °C; in that of `COc1cc(C(=O)O)ccc1OCCCCCOc1nc2ccccc2s1`, 130 to 131 °C.
Next, `C=CCOc1ccc2ccc(N)nc2n1`: 138 °C.
For the compound `CC1CCN(c2cc3nc(C(C)(C)C)sc3cc2[N+](=O)[O-])CC1`, the melting point was in the range of 116 to 120 °C.
`CCOC(=O)c1cn(-c2csnn2)c2cc(F)c(F)cc2c1=O` came in with a melting point of 198 to 203 °C.
In the case of `CCOC(=O)c1ccc(Cn2c(NC3CCN(C(=O)OCC)CC3)nc3ccccc32)o1` it was 136 °C; in that of `CC(=Cc1ccccc1)C(C#N)=NOS(C)(=O)=O`, 105 to 107 °C.
The compound `Cc1nnc(-c2cc3cccc(NS(=O)(=O)c4cccs4)c3[nH]2)s1` had a melting point of 308 to 309 °C.
`N#Cc1ccc2c(c1)c(C1CCC3(CC1)OCCO3)cn2Cc1ccccc1`: the melting point lay in the range of 129 to 130 °C.
As for `COC(=O)CCCc1cc2cc(C(F)(F)F)ccc2n1S(=O)(=O)c1cccc(C(C)C)c1`, the melting point is 115 °C.
Next, `CN1C(=O)CCCc2cc(Nc3ncc(Cl)c(Nc4ccc(N5CCOCC5)cc4C(N)=O)n3)ccc21`: 288 to 290 °C; `CC(=O)c1c(C)oc(-c2ccncc2)c1C`: 65 to 66.5 °C.
Regarding `NC(=O)Nc1cc(Oc2ncccc2C(F)(F)F)c(Cl)cc1F`, the melting point is over 220 °C.
The compound `COc1ccc(Cl)cc1S(=O)(=O)N(C)c1ccccc1` showed a melting point of 88 to 89 °C.
Consider `CCC(CC)O[C@@H]1C=C(C(=O)O)C[C@H](CC=O)[C@H]1NC(C)=O`, for which the melting point is 70 to 71 °C.
As to `COc1cc2c(cc1Nc1ncc(Cl)c(N[C@@H]3CCCC[C@H]3NS(C)(=O)=O)n1)CCOC(=O)N2C`, the melting point fell in the range of 160 to 162 °C.
In turn, `Cn1c2c(c3c4c(N)nc(N)nc4ccc31)CCCC2` gave a melting point of 288 to 292 °C.
Next, `O=C1CNCCN1c1cccc([N+](=O)[O-])c1`: 137 to 139 °C; `CCOC(=O)[C@H](CCSC)NC(=O)C1(Br)SC=C(Br)C1Br` (stereo partly drawn): 80 to 82 °C; `CC12CC3(C)CC(Br)(C1)CC(Br)(C2)C3`: 115 to 116 °C.
On to `CC#CC(=O)Nc1cccc(-c2ccnc3c(C(=O)c4cccs4)cnn23)c1`, for which the melting point lay in the range of 202 to 203 °C.
For the compound `CN(C)C1CCN(c2nccc(Oc3ccc(NC(=O)c4cc(F)cc(N5CCOCC5)c4)c4ccccc34)n2)C1` (stereo not drawn), the melting point was in the range of 106 to 108 °C.
`CC1(NC2=NS(=O)(=O)c3sc(Cl)cc3N2)CCC1`: the melting point fell in the range of 294 to 296 °C.
Next, `COCc1c(NC2CC2)c([N+](=O)[O-])cc(F)c1N1CCN(C)CC1`: 89 to 90 °C.

The values above are taken from a melting point compilation (Tetko et al.; mined from patent text by program, amines drawn as free bases though some values may be those of a salt).
